Measurements taken from PMC4421842 (Nature Communications, 2015).

What was measured:
E. faecalis = experiment: microbe, parasite or virus in culture; type: cell-based; conditions: E. faecalis, gyrA Ser83Ile
E. faecium = experiment: microbe, parasite or virus in culture; type: cell-based; conditions: E. faecium, gyrA Ser83Ile, parC Ser80Ile

Measured: MIC

Cc1cc(=O)n(C)c2c3c4c(cc12)c(C)cc(=O)n4CO3 [DNM, deoxynybomycin]
0.25 µg/mL: E. faecalis; C21667, parC Ser80Ile | E. faecalis; C28535, parC Ser80Ile | E. faecalis; S234, parC Ser80Ile Glu84Asp | E. faecium; C27569 | E. faecium; D1 | E. faecium; S51 | E. faecium; S122 | E. faecium; SL152

CCn1c(=O)cc(C)c2cc3c(C)cc(=O)n4c3c(c21)OC4 [DNM-2]
0.25 µg/mL: E. faecalis; C28535, parC Ser80Ile | E. faecalis; S234, parC Ser80Ile Glu84Asp
